Data taken from patent US8507493B2 (AbbVie Inc., priority 2009, dated 2013).

Biological target: T1, human 11β-HSD1 (Homo sapiens, UniProt P28845)
T1 construct: truncated (24-287aa) human 11β-HSD1 enzyme; made in house; host or cells: E. coli (lysate, not purified)
Test: Human 11β-HSD1 enzymatic SPA assay
Format: biochemical
Conditions: truncated (24-287aa) human 11β-HSD1, apparent Ki from IC50 by Cheng-Prusoff
Description: The ability of test compounds to inhibit human 11β-HSD1 enzymatic activity in vitro was evaluated in a Scintillation Proximity Assay (SPA). Tritiated-cortisone substrate, NADPH cofactor and titrated compound were incubated with truncated (24-287aa) human 11β-HSD1 enzyme at room temperature to allow the conversion to cortisol to occur. The reaction was stopped by adding a non-specific 11β-HSD inhibitor, glycyrrhetinic acid. The tritiated cortisol was captured by a mixture of an anti-cortisol monoclonal antibody and SPA beads coated with anti-mouse antibodies. The reaction plate was shaken at room temperature and the radiolabel bound to SPA beads was then measured on a scintillation counter. The 11β-HSD1 assay was carried out in 96-well microtiter plates in a total volume of […]. To start the assay, 188 μL of master mix which contained 75 nM ^3H-cortisone, 100 nM cortisone and 181 μM NADPH was added to the wells. In order to drive the reaction in the 11β-reductase direction, 1 mM glucose-6-phosphate (G-6-P) and 1 U/mL G-6-P dehydrogenase were also added as a NADPH generating system. Solid compound was dissolved in dimethyl sulfoxide to make a 10 mM stock followed by a subsequent 10-fold serial dilution with dimethyl sulfoxide. Each compound solution in dimethyl sulfoxide was 10-fold diluted in Tris/EDTA buffer (pH 7.4). 22 μL of titrated compound were then added in duplicate to the substrate. Reactions were initiated by the addition of 10 μL of 0.1 mg/mL E. coli lysates overexpressing 11β-HSD1 enzyme. After shaking and incubating plates for 30 minutes at room temperature, reactions were stopped by adding 10 μL of 1 mM glycyrrhetinic acid. The product, tritiated cortisol, was captured by adding 10 μL of 1 μM monoclonal mouse anti-cortisol antibodies and 50 μL of SPA beads coated with anti-mouse antibodies. After shaking for 30 minutes, plates were read in a Microbeta scintillation counter. Percent inhibition was calculated based on the background and the maximal signal. Wells that contained substrate without compound or enzyme were used as the background, while the wells that contained substrate and enzyme without any compound were considered as maximal signal. Percent of inhibition of each compound was calculated relative to the maximal signal and IC50 curves were generated. Assuming competitive inhibition the Cheng-Prusoff equation was used to calculate apparent Ki values from the IC50 values. This assay was applied to 11β-HSD2 as well, whereby 6 nM tritiated cortisol and 250 uM NAD^+ were used as substrate and cofactor, respectively.

T1 sequence (P28845 24-287): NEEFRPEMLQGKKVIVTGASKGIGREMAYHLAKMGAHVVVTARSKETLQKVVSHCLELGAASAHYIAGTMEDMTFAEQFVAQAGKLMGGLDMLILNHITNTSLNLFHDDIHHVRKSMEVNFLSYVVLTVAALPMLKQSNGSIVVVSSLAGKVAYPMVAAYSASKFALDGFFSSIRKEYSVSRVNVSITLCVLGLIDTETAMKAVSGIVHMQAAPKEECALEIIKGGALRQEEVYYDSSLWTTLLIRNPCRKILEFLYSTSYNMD

Row | Molecule | Ki [µM]
1 | CC(C)(Oc1ccc(Cl)cc1)C(=NC#N)NC1C2CC3CC1CN(C3)C2 (stereo not drawn) [Example 39, (1E)-N-[(4s)-1-Azatricyclo[3.3.1.1^3,7]dec-4-yl]-2-(4-chlorophenoxy)-N′-cyano-2-methylpropanimidamide] | > 1
2 | CC(C)(Oc1ccc(Cl)cc1)C(=NC#N)NC1CN2CCC1CC2 (stereo not drawn) [Example 40, N-1-Azabicyclo[2.2.2]oct-3-yl-2-(4-chlorophenoxy)-N′-cyano-2-methylpropanimidamide] | > 1
3 | CC(C)(Oc1ccc(F)cc1F)C(=NC#N)NC12CC3CC(CC1C3)C2 [Example 69] | 0.01 to 0.1
4 | CC(C)(Oc1ccc(Cl)cc1)/C(=N\C#N)N[C@@H]1[C@@H]2C[C@@H]3C[C@H]1C[C@@](C(=O)O)(C3)C2 [Example 36, (E)-4-{[(1E)-2-(4-Chlorophenoxy)-N-cyano-2-methylpropanimidoyl]amino}adamantane-1-carboxylic acid] | 0.1 to 1
5 | N#CN=C(Cc1cccnc1Cl)NC1C2CC3CC1CC(O)(C3)C2 (stereo not drawn) [Example 6, (1E)-2-(2-Chloropyridin-3-yl)-N′-cyano-N-[(E)-5-hydroxy-2-adamantyl]ethanimidamide] | > 1
6 | CC(C)(Oc1ccc(F)cc1F)C(=NC#N)NC1C2CC3CC1CC(C(N)=O)(C3)C2 (stereo not drawn) [Example 70, (E)-4-{[(1E)-N-cyano-2-(2,4-difluorophenoxy)-2-methylpropanimidoyl]amino}adamantane-1-carboxamide] | ≤ 0.01
7 | Cc1c(Cl)cccc1S(=O)(=O)N1CCC[C@H](C(=NC#N)NC2CCCCC2)C1 [Example 35, (3S)-1-[(3-Chloro-2-methylphenyl)sulfonyl]-N′-cyano-N-cyclohexylpiperidine-3-carboximidamide] | > 1
8 | CC(C)(Oc1ccc(Cl)cc1F)C(=NC#N)NC1CCCCCCC1 [Example 61, 2-(4-chloro-2-fluorophenoxy)-N′-cyano-N-cyclooctyl-2-methylpropanimidamide] | 0.1 to 1
9 | CC(C)(Oc1ccccc1)C(=NC#N)NC12CCC(C#N)(CC1)C2 [Example 83, N′-cyano-N-(4-cyanobicyclo[2.2.1]hept-1-yl)-2-methyl-2-phenoxypropanimidamide] | 0.1 to 1
10 | CC(C)(Cc1ccc(Cl)cc1)C(=N)NC1C2CC3CC1CC(O)(C3)C2 (stereo not drawn) [Example 22, 3-(4-Chlorophenyl)-N-[(E)-5-hydroxy-2-adamantyl]-2,2-dimethylpropanimidamide] | > 1
11 | Cc1ccccc1CC(=NC#N)NC1C2CC3CC1CC(O)(C3)C2 (stereo not drawn) [Example 2, (1E)-N-Cyano-N-[(E)-5-hydroxy-2-adamantyl]-2-(2-methylphenyl)ethanimidamide] | > 1
12 | COc1ccc(Cl)cc1C(=NC#N)N[C@@H]1[C@@H]2C[C@@H]3C[C@H]1C[C@@](O)(C3)C2 [Example 93, 5-chloro-N′-cyano-N-[(E)-5-hydroxyadamantan-2-yl]-2-methoxybenzenecarboximidamide] | > 1
13 | CC(C)(Oc1ccccc1F)/C(=N\C#N)NC1C2CC3CC1CC(C#N)(C3)C2 (stereo not drawn) [Example 78, (1E)-N′-cyano-N-[(E)-5-cyanoadamantan-2-yl]-2-(2-fluorophenoxy)-2-methylpropanimidamide] | 0.01 to 0.1
14 | CC(C)(Oc1ccc(F)cc1F)C(=NC#N)NC1C2CC3CC1CC(O)(C3)C2 (stereo not drawn) [Example 51, (1E)-N′-cyano-2-(2,4-difluorophenoxy)-N-[(E)-5-hydroxyadamantan-2-yl]-2-methylpropanimidamide] | ≤ 0.01

Now from value to molecule:

Row | Ki [µM] | Molecule
15 | > 1 | CC(C)(Oc1ccccc1)C(=NC#N)NC12CCC(C(=O)O)(CC1)CC2 [Example 87, 4-{[N-cyano-2-methyl-2-phenoxypropanimidoyl]amino}bicyclo[2.2.2]octane-1-carboxylic acid]
16 | 0.1 to 1 | CC(C)(Oc1ccc(Cl)cc1F)C(=NC#N)NC12CC3CC(CC1C3)C2 [Example 73, 2-(4-chloro-2-fluorophenoxy)-Y-cyano-N-(hexahydro-2,5-methanopentalen-3a(1H)-yl)-2-methylpropanimidamide]
17 | ≤ 0.01 | CC(C)(Oc1ccc(F)cc1F)C(=NC#N)NC1CC2CCC1C2 (stereo not drawn) [Example 56, N-[(exo)-bicyclo[2.2.1]hept-2-yl]-N-cyano-2-(2,4-difluorophenoxy)-2-methylpropanimidamide]
18 | 0.1 to 1 | CC(C)(Oc1ccc(Cl)cn1)C(=NC#N)NC1C2CC3CC1CC(C#N)(C3)C2 (stereo not drawn) [Example 59, (1E)-2-[(5-chloropyridin-2-yl)oxy]-N′-cyano-N-[(E)-5-cyanoadamantan-2-yl]-2-methylpropanimidamide]
19 | 0.1 to 1 | CC(C)(Oc1ccc(Cl)cc1)C(=NC#N)NC1C2CC3CC1CC(S(N)(=O)=O)(C3)C2 (stereo not drawn) [Example 10, (1E)-N-[(E)-5-(Aminosulfonyl)-2-adamantyl]-2-(4-chlorophenoxy)-N′-cyano-2-methylpropanimidamide]
20 | ≤ 0.01 | CC(C)(Oc1ccc(F)cc1F)C(=NC#N)NC1C2CC3CC1CC(S(C)(=O)=O)(C3)C2 (stereo not drawn) [Example 45, (1E)-N′-cyano-2-(2,4-difluorophenoxy)-2-methyl-N-[(E)-5-(methylsulfonyl)adamantan-2-yl]propanimidamide]
21 | > 1 | N#CN=C(NC1C2CC3CC1CC(O)(C3)C2)C1(c2ccc(Cl)cc2)CCC1 (stereo not drawn) [Example 3, 1-(4-Chlorophenyl)-N′-cyano-N-[(E)-5-hydroxy-2-adamantyl]cyclobutanecarboximidamide]
22 | 0.1 to 1 | CC(C)(Oc1ccc(Cl)cc1)C(=NC#N)NC12CCC(C(N)=O)(CC1)C2 [Example 88, 4-{[2-(4-chlorophenoxy)-N-cyano-2-methylpropanimidoyl]amino}bicyclo[2.2.1]heptane-1-carboxamide]
23 | 0.1 to 1 | COC(=O)C12CC3CC(C1)C(NC(=NC#N)C(C)(C)N1CC4CC(c5ccc(Cl)cc5)C4C1)C(C3)C2 (stereo not drawn) [Example 48, methyl(E)-4-({(1E)-2-[(1R*,5S*,6R*)-6-(4-chlorophenyl)-3-azabicyclo[3.2.0]hept-3-yl]-N-cyano-2-methylpropanimidoyl}amino)adamantane-1-carboxylate]
24 | 0.1 to 1 | CC(C)(Oc1ccc(Cl)cn1)C(=NC#N)NC1C2CC3CC1CC(S(C)(=O)=O)(C3)C2 (stereo not drawn) [Example 67, (1E)-2-[(5-chloropyridin-2-yl)oxy]-N-cyano-2-methyl-N-[(E)-5-(methylsulfonyl)adamantan-2-yl]propanimidamide]
25 | 0.01 to 0.1 | (1E)-N-(adamantan-1-yl)-N-cyano-2-(2,4-difluorophenoxy)-2-methylpropanimidamide [Example 71]
26 | ≤ 0.01 | CC(C)(Oc1ccc(Cl)cc1F)/C(=N\C#N)NC1C2CC3CC1CC(C(N)=O)(C3)C2 (stereo not drawn) [Example 74, (E)-4-{[(1E)-2-(4-chloro-2-fluorophenoxy)-N-cyano-2-methylpropanimidoyl]amino}adamantane-1-carboxamide]
27 | 0.01 to 0.1 | CC(C)(OCc1ccc(C(F)(F)F)cc1)/C(=N\C#N)N[C@@H]1[C@@H]2C[C@@H]3C[C@H]1C[C@@](C(N)=O)(C3)C2 [Example 25, (E)-4-[((1E)-N-Cyano-2-methyl-2-{[4-(trifluoromethyl)benzyl]oxy}propanimidoyl)amino]adamantane-1-carboxamide]
28 | 0.1 to 1 | CC(C)(Oc1ccccn1)/C(=N\C#N)NC1C2CC3CC1CC(S(C)(=O)=O)(C3)C2 (stereo not drawn) [Example 77, (1E)-N′-cyano-2-methyl-N-[(E)-5-(methylsulfonyl)adamantan-2-yl]-2-(pyridin-2-yloxy)propanimidamide]
29 | > 1 | N#C/N=C(\Cc1ccccc1F)N[C@@H]1[C@@H]2C[C@@H]3C[C@H]1C[C@@](O)(C3)C2 [Example 5, (1E)-N′-Cyano-2-(2-fluorophenyl)-N-[(E)-5-hydroxy-2-adamantyl]ethanimidamide]
30 | 0.1 to 1 | CC(C)(Oc1ccccc1)C(=NC#N)NC12CCC(C#N)(CC1)CC2 [Example 84, N′-cyano-N-(4-cyanobicyclo[2.2.2]oct-1-yl)-2-methyl-2-phenoxypropanimidamide]
31 | 0.01 to 0.1 | CC(C)(Oc1ccc(F)cc1Cl)C(=NC#N)NC1C2CC3CC1CC(O)(C3)C2 (stereo not drawn) [Example 1, (1E)-2-(2-Chloro-4-fluorophenoxy)-Y-cyano-N-[(E)-5-hydroxy-2-adamantyl]-2-methylpropanimidamide]
32 | 0.01 to 0.1 | CC(C)(Oc1ccc(F)cc1F)/C(=N\C#N)N[C@@H]1[C@@H]2C[C@@H]3C[C@H]1C[C@@](S(N)(=O)=O)(C3)C2 [Example 57]
33 | > 1 | CC(C)(/C(=N\C#N)N[C@@H]1[C@@H]2C[C@@H]3C[C@H]1C[C@@](C(=O)O)(C3)C2)N1CCN(c2ccc(C(F)(F)F)cn2)CC1 [Example 30, (E)-4-[((1E)-N-Cyano-2-methyl-2-{4-[5-(trifluoromethyl)pyridin-2-yl]piperazin-1-yl}propanimidoyl)amino]adamantane-1-carboxylic acid]
